pIC50: −log10 of the molar value.
Key:
Assay type in all cases: biochemical
Jnk1 = Jnk1 (Homo sapiens, UniProt P45983); assay: Kinase activity assay, Jnk1; settings: under the test conditions employed; read-out: activity toward kinase Jnk1, IC50
Protocol: (§1) The effect of potential modulators of kinase activity of c-kit and other kinases can be measured in a variety of different assays known in the art, e.g., biochemical assays, cell-based assays, and in vivo testing (e.g. model system testing). Such in vitro and/or in vivo assays and tests can be used in the present invention. As an exemplary kinase assay, the kinase activity of c-kit or Fms is measured in AlphaScreening (Packard BioScience). Assays for the activity of various kinases are described, for example, in U.S. patent application Ser. No. 11/473,347 (see also, PCT publication WO2007002433), the disclosure of which is hereby incorporated by reference.

Kdr = Kdr (Homo sapiens, UniProt P35968); assay: Kinase activity assay, Kdr; settings: under the test conditions employed; read-out: activity toward kinase Kdr, IC50
Chain of Kdr (P35968 20-1356): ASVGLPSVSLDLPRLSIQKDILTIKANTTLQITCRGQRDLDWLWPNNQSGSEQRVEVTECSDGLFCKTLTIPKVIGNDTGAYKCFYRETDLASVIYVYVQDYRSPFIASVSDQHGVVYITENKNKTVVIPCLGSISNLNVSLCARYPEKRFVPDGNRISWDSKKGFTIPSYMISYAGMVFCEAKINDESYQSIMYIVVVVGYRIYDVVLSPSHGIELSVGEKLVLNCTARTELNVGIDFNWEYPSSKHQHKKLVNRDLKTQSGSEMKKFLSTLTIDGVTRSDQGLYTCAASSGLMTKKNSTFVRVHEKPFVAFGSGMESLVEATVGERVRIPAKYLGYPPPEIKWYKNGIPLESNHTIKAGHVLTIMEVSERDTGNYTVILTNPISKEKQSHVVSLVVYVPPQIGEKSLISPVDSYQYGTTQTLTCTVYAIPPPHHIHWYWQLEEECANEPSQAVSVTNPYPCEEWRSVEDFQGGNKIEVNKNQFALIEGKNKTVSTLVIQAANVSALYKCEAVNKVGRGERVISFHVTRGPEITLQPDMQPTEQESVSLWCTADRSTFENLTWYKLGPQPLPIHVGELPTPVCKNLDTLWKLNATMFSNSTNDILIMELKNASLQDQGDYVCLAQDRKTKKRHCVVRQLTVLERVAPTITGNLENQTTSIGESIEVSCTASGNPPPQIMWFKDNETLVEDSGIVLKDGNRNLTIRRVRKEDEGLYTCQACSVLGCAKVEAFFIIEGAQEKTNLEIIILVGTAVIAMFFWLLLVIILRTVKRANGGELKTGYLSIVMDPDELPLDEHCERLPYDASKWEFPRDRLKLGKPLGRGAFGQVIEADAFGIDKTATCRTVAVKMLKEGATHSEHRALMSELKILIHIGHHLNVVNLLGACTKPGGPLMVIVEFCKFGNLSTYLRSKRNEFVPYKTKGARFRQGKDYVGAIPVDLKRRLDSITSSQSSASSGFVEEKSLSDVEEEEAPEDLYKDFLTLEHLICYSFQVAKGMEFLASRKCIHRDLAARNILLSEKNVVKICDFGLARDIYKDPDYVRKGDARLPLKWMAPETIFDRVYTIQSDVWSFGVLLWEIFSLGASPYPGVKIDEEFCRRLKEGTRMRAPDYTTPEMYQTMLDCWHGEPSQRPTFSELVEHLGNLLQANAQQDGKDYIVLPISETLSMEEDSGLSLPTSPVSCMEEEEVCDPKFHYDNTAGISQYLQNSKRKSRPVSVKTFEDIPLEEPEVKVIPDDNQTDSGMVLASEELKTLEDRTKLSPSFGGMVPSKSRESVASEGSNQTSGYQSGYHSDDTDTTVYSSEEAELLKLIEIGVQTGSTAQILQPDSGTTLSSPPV
Protocol: as §1

Kit = Kit (Homo sapiens, UniProt P10721); assay: Kinase activity assay, Kit; settings: under the test conditions employed; read-out: activity toward kinase Kit, IC50
Chain of Kit (P10721 26-976): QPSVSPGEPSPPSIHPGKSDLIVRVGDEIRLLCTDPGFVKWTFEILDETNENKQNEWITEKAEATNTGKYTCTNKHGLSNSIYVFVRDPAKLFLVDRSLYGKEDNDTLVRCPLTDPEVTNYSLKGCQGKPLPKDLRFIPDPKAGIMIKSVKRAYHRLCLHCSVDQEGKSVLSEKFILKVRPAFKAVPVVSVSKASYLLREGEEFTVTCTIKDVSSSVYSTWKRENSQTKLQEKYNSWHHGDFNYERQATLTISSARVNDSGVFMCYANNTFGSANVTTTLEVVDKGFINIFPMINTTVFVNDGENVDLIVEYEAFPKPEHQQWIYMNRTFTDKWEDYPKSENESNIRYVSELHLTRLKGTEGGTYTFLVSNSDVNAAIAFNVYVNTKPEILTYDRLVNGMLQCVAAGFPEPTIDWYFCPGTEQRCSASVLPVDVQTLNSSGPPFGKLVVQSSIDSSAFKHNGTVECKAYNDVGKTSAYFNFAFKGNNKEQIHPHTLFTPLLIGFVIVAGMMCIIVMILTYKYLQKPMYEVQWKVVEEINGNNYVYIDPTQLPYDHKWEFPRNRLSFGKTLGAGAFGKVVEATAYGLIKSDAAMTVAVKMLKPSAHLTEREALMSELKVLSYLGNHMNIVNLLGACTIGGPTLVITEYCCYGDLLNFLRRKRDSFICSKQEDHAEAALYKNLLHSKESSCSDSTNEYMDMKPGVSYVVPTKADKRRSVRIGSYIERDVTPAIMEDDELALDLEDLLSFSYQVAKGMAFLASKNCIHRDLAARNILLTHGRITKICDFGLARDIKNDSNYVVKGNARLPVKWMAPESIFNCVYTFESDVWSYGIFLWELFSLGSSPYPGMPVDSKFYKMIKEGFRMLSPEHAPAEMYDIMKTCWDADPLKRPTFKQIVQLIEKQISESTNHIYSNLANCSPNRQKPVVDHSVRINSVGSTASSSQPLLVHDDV
Protocol: as §1

B-Raf V600E/T529I = B-Raf V600E/T529I (Homo sapiens, UniProt P15056, T529I/V600E); assay: Kinase activity assay, B-Raf V600E/T529I; settings: under the test conditions employed; read-out: activity toward kinase B-Raf V600E/T529I, IC50
Protocol: as §1

B-Raf = B-Raf (Homo sapiens, UniProt P15056); assay: Kinase activity assay, B-Raf; settings: under the test conditions employed; read-out: activity toward kinase B-Raf, IC50
Protocol: as §1

B-Raf V600E = B-Raf V600E (Homo sapiens, UniProt P15056, V600E); assay: Kinase activity assay, B-Raf V600E; settings: under the test conditions employed; read-out: activity toward kinase B-Raf V600E, IC50
Protocol: as §1

c-Raf-1 = c-Raf-1 (Homo sapiens, UniProt P04049); assay: Kinase activity assay, c-Raf-1; settings: under the test conditions employed; read-out: activity toward kinase c-Raf-1, IC50
Protocol: as §1

Flt1 = Flt1 (Homo sapiens, UniProt P17948); assay: Kinase activity assay, Flt1; settings: under the test conditions employed; read-out: activity toward kinase Flt1, IC50
Chain of Flt1 (P17948 27-1338): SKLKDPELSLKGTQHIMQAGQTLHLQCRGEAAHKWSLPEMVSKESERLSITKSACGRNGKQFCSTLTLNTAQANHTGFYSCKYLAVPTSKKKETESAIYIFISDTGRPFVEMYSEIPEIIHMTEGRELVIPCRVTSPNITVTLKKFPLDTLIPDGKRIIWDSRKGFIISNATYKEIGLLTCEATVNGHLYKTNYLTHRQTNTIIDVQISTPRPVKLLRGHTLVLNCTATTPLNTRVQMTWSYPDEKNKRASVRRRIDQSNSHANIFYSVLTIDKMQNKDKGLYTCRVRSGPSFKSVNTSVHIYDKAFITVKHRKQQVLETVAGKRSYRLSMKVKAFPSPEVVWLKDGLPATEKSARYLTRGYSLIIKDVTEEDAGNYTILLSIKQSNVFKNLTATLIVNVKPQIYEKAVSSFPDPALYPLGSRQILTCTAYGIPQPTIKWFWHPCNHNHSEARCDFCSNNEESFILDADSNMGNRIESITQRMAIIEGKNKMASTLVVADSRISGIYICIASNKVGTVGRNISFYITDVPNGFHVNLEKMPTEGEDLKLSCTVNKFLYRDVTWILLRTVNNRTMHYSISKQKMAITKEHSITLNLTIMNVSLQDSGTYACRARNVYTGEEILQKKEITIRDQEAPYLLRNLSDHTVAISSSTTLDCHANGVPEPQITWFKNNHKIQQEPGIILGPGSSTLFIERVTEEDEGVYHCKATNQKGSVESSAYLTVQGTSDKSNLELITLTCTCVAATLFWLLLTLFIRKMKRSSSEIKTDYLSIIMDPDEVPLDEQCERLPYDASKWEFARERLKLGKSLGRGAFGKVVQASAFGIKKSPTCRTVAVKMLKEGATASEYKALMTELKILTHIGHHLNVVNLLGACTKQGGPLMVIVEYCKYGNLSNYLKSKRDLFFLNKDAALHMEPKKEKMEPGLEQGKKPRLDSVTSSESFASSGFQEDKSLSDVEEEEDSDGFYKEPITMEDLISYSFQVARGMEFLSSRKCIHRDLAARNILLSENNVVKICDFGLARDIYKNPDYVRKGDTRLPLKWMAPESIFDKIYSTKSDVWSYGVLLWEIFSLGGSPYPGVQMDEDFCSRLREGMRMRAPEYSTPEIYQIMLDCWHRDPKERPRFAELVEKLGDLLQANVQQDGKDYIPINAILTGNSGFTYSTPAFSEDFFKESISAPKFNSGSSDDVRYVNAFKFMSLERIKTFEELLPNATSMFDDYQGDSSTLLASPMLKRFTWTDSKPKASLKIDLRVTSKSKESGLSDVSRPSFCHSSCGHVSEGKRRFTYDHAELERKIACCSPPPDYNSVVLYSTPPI
Protocol: as §1

Fms = Fms (Homo sapiens, UniProt P07333); assay: Kinase activity assay, Fms; settings: under the test conditions employed; read-out: activity toward kinase Fms, IC50
Protocol: as §1

Src = Src (Homo sapiens, UniProt P12931); assay: Kinase activity assay, Src; settings: under the test conditions employed; read-out: activity toward kinase Src, IC50
Chain of Src (P12931 whole entry): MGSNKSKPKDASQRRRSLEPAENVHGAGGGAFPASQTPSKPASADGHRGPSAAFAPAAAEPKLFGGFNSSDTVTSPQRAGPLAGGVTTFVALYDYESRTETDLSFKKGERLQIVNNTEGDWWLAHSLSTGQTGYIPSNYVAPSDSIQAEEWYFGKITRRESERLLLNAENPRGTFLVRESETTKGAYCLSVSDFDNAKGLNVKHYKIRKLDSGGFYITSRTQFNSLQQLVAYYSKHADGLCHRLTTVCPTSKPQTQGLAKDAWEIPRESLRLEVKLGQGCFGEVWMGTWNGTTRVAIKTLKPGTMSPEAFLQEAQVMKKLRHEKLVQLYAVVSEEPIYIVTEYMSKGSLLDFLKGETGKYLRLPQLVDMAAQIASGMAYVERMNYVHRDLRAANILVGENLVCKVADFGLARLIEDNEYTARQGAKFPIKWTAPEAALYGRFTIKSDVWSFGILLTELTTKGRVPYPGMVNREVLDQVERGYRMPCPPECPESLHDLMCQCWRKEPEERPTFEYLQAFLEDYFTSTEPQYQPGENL
Protocol: as §1

Btk = Btk (Homo sapiens, UniProt Q06187); assay: Kinase activity assay, Btk; settings: under the test conditions employed; read-out: activity toward kinase Btk, IC50
Protocol: as §1

Measured: pIC50

Chain of Jnk1 (P45983 whole entry): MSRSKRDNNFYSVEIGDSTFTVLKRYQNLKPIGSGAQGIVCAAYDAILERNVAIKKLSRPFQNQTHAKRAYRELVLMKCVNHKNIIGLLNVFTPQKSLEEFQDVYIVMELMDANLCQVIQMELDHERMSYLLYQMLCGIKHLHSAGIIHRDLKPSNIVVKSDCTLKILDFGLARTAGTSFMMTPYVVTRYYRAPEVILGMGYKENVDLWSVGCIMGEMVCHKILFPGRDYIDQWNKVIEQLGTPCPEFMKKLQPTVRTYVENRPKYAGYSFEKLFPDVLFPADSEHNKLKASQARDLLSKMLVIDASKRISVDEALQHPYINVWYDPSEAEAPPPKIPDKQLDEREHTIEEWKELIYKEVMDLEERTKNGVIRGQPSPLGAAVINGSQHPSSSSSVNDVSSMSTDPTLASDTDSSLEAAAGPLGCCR

c1cc2cc(OC3CCCC3)cnc2[nH]1 [P-0001, 5-cyclopentyloxy-1H-pyrrolo[2,3-b]pyridine]
≥ 5.00: Jnk1 | Kdr | Kit

c1ccc(COc2cnc3[nH]ccc3c2)cc1 [P-0002, 5-(benzyloxy)-1H-pyrrolo[2,3-b]pyridine]
≥ 5.00: Jnk1 | Kdr | Kit

COc1cccc(COc2cnc3[nH]ccc3c2)c1 [P-0003, 5-(3-methoxybenzyloxy)-1H-pyrrolo[2,3-b]pyridine]
≥ 5.00: Kdr

COc1ccc(COc2cnc3[nH]ccc3c2)c(OC)c1 [P-0008, 5-(2,4-dimethoxybenzyloxy)-1H-pyrrolo[2,3-b]pyridine]
≥ 5.00: B-Raf V600E/T529I

COCCOc1cnc2[nH]ccc2c1 [P-0009, 5-(2-methoxyethoxy)-1H-pyrrolo[2,3-b]pyridine]
≥ 5.00: B-Raf | B-Raf V600E

FC(F)Oc1ccc(COc2cnc3[nH]ccc3c2)cc1 [P-0014, 5-(4-(difluoromethoxy)benzyloxy)-1H-pyrrolo[2,3-b]pyridine]
≥ 5.00: Kdr

c1cc2cc(OCC3CCOCC3)cnc2[nH]1 [P-0019, 5-((tetrahydro-2H-pyran-4-yl)methoxy)-1H-pyrrolo[2,3-b]pyridine]
≥ 5.00: B-Raf | B-Raf V600E

c1ccc(CN2CC[C@H](Oc3cnc4[nH]ccc4c3)C2)cc1 [P-0026, 5-((S)-1-benzylpyrrolidin-3-yloxy)-1H-pyrrolo[2,3-b]pyridine]
≥ 5.00: B-Raf

CCCS(=O)(=O)Nc1ccc(F)c(C(=O)c2c[nH]c3ncc(OC4CCCC4)cc23)c1F [P-0033, propane-1-sulfonic acid [3-(5-cyclopentyloxy-1H-pyrrolo[2,3-b]pyridine-3-carbonyl)-2,4-difluoro-phenyl]-amide]
not listed: Btk
≥ 5.00: all other assays above

CCCS(=O)(=O)Nc1ccc(F)c(C(=O)c2c[nH]c3ncc(OCc4ccccc4)cc23)c1F [P-0034, Propane-1-sulfonic acid [3-(5-benzyloxy-1H-pyrrolo[2,3-b]pyridine-3-carbonyl)-2,4-difluoro-phenyl]-amide]
≥ 5.00: B-Raf | B-Raf V600E | B-Raf V600E/T529I | c-Raf-1 | Flt1 | Kdr

c1ccc(Oc2cnc3[nH]ccc3c2)cc1 [P-0035, 5-phenoxy-1H-pyrrolo[2,3-b]pyridine]
≥ 5.00: Fms | Kdr | Kit

O=C(c1ccc(Cl)cc1Cl)c1c[nH]c2ncc(Oc3ccccc3)cc12 [P-0036, (2,4-dichloro-phenyl)-(5-phenoxy-1H-pyrrolo[2,3-b]pyridin-3-yl)-methanone]
≥ 5.00: Btk | Fms | Kdr | Kit

Clc1ccc(Cc2c[nH]c3ncc(Oc4ccccc4)cc23)c(Cl)c1 [P-0037, 3-(2,4-dichloro-benzyl)-5-phenoxy-1H-pyrrolo[2,3-b]pyridine]
≥ 5.00: Fms | Kdr | Kit

CS(=O)(=O)c1ccc(Oc2cnc3[nH]cc(C(=O)c4ccc(F)cc4Cl)c3c2)cc1 [P-0038, (2-Chloro-4-fluoro-phenyl)-[5-(4-methanesulfonyl-phenoxy)-1H-pyrrolo[2,3-b]pyridin-3-yl]-methanone]
≥ 5.00: Flt1 | Kdr

O=C(O)Cc1cccc(Oc2cnc3[nH]cc(C(=O)c4ccc(F)cc4Cl)c3c2)c1 [P-0039, {3-[3-(2-Chloro-4-fluoro-benzoyl)-1H-pyrrolo[2,3-b]pyridin-5-yloxy]-phenyl}-acetic acid]
≥ 5.00: B-Raf V600E/T529I | Btk | Fms | Kdr | Kit

O=C(c1ccc2cc[nH]c2c1)c1c[nH]c2ncc(OC3CCCC3)cc12 [P-0040, (5-Cyclopentyloxy-1H-pyrrolo[2,3-b]pyridin-3-yl)-(1H-indol-6-yl)-methanone]
≥ 5.00: B-Raf V600E/T529I | Flt1 | Fms | Jnk1 | Kdr | Kit

CCCS(=O)(=O)Nc1ccc(F)c(C(=O)c2c[nH]c3ncc(OCCN4CCOCC4)cc23)c1F [P-0041, Propane-1-sulfonic acid {2,4-difluoro-3-[5-(2-morpholin-4-yl-ethoxy)-1H-pyrrolo[2,3-b]pyridine-3-carbonyl]-phenyl}-amide]
≥ 5.00: B-Raf | B-Raf V600E | Kdr | Src

CCCS(=O)(=O)Nc1ccc(F)c(C(=O)c2c[nH]c3ncc(OC4CCOCC4)cc23)c1F [P-0045, Propane-1-sulfonic acid {2,4-difluoro-3-[5-(tetrahydro-pyran-4-yloxy)-11H-pyrrolo[2,3-b]pyridine-3-carbonyl]-phenyl}-amide]
not listed: Jnk1 | c-Raf-1 | Flt1 | Btk
≥ 5.00: all other assays above

CCCS(=O)(=O)Nc1ccc(F)c(C(=O)c2c[nH]c3ncc(S(=O)(=O)c4ccc(C)cc4)cc23)c1F [P-0047, Propane-1-sulfonic acid {2,4-difluoro-3-[5-(toluene-4-sulfonyl)-1H-pyrrolo[2,3-b]pyridine-3-carbonyl]-phenyl}-amide]
≥ 5.00: B-Raf | B-Raf V600E | Kdr
